{
  "source": "ChEMBL document CHEMBL1143405",
  "about": "“Retapamulin inhibition of translation and 50S ribosomal subunit formation in Staphylococcus aureus cells” (Antimicrob Agents Chemother, 2007)",
  "key": {"[1]": {"tested_on": "Staphylococcus aureus", "assay": "Increase in small RNA level in wild type Staphylococcus aureus RN1786 at 20 ng/mL by agilent bioanalyzer analysis", "format": "functional"}, "[2]": {"tested_on": "Staphylococcus aureus", "assay": "Inhibition of ribosomal 50S subunit synthesis in wild type Staphylococcus aureus RN1786 at 8 ng/mL by [3H]uridine pulse-chase labeling method", "format": "functional, organism-based"}, "[3]": {"tested_on": "Staphylococcus aureus", "assay": "Inhibition of protein synthesis in methicillin-resistant Staphylococcus aureus A1024", "format": "functional, organism-based"}, "[4]": {"tested_on": "Staphylococcus aureus", "assay": "Inhibition of ribosomal 30S subunit formation in wild type Staphylococcus aureus RN1786", "format": "functional, organism-based"}, "[5]": {"tested_on": "Staphylococcus aureus", "assay": "Reduction of 23S rRNA level in methicillin-resistant Staphylococcus aureus A1024 at 20 ng/mL by agilent bioanalyzer analysis", "format": "functional", "set-up": "scale not given: the % may be the effect or the level left"}, "[6]": {"tested_on": "Staphylococcus aureus", "assay": "Effect on 16S rRNA level in wild type Staphylococcus aureus RN1786 at 10 ng/mL by agilent bioanalyzer analysis", "format": "functional"}, "[7]": {"tested_on": "Staphylococcus aureus", "assay": "Effect on 16S rRNA level in methicillin-resistant Staphylococcus aureus A1024 at 10 ng/mL by agilent bioanalyzer analysis", "format": "functional"}, "[8]": {"tested_on": "Staphylococcus aureus", "assay": "Inhibition of total viable cell number in methicillin-resistant Staphylococcus aureus A1024", "format": "functional, organism-based"}, "[9]": {"tested_on": "Staphylococcus aureus", "assay": "Inhibition of ribosomal 50S subunit synthesis in methicillin-resistant Staphylococcus aureus A1024 at 8 ng/mL by [3H]uridine pulse-chase labeling method", "format": "functional, organism-based"}, "[10]": {"tested_on": "Staphylococcus aureus", "assay": "Inhibition of ribosomal 50S subunit synthesis in methicillin-resistant Staphylococcus aureus A1024", "format": "functional, organism-based"}, "[11]": {"tested_on": "Staphylococcus aureus", "assay": "Reduction of 23S rRNA level in wild type Staphylococcus aureus RN1786 at 20 ng/mL by agilent bioanalyzer analysis", "format": "functional", "set-up": "scale not given: the % may be the effect or the level left"}, "[12]": {"tested_on": "Staphylococcus aureus", "assay": "Inhibition of total viable cell number in wild type Staphylococcus aureus RN1786", "format": "functional, organism-based"}, "[13]": {"tested_on": "Staphylococcus aureus", "assay": "Inhibition of ribosomal 30S subunit synthesis in methicillin-resistant Staphylococcus aureus A1024 at 8 ng/mL by [3H]uridine pulse-chase labeling method", "format": "functional, organism-based"}, "[14]": {"tested_on": "Staphylococcus aureus", "assay": "Effect on 16S rRNA level in methicillin-resistant Staphylococcus aureus A1024 at 20 ng/mL by agilent bioanalyzer analysis", "format": "functional"}, "[15]": {"tested_on": "Staphylococcus aureus", "assay": "Increase in small RNA level in methicillin-resistant Staphylococcus aureus A1024 at 10 ng/mL by agilent bioanalyzer analysis", "format": "functional"}, "[16]": {"tested_on": "Staphylococcus aureus", "assay": "Effect on 16S rRNA level in wild type Staphylococcus aureus RN1786 at 20 ng/mL by agilent bioanalyzer analysis", "format": "functional"}, "[17]": {"tested_on": "Staphylococcus aureus", "assay": "Increase in small RNA level in wild type Staphylococcus aureus RN1786 at 10 ng/mL by agilent bioanalyzer analysis", "format": "functional"}, "[18]": {"tested_on": "Staphylococcus aureus", "assay": "Increase in small RNA level in methicillin-resistant Staphylococcus aureus A1024 at 20 ng/mL by agilent bioanalyzer analysis", "format": "functional"}, "[19]": {"tested_on": "Staphylococcus aureus", "assay": "Inhibition of ribosomal 30S subunit formation in methicillin-resistant Staphylococcus aureus A1024", "format": "functional, organism-based"}, "[20]": {"tested_on": "Staphylococcus aureus", "assay": "Antibacterial activity against methicillin-resistant Staphylococcus aureus A1024", "format": "functional"}, "[21]": {"tested_on": "Staphylococcus aureus", "assay": "Inhibition of protein synthesis in wild type Staphylococcus aureus RN1786", "format": "functional, organism-based"}, "[22]": {"tested_on": "Staphylococcus aureus", "assay": "Reduction of 23S rRNA level in methicillin-resistant Staphylococcus aureus A1024 at 10 ng/mL by agilent bioanalyzer analysis", "format": "functional", "set-up": "scale not given: the % may be the effect or the level left"}, "[23]": {"tested_on": "Staphylococcus aureus", "assay": "Inhibition of ribosomal 50S subunit synthesis in wild type Staphylococcus aureus RN1786", "format": "functional, organism-based"}, "[24]": {"tested_on": "Staphylococcus aureus", "assay": "Antibacterial activity against wild type Staphylococcus aureus RN1786", "format": "functional"}, "[25]": {"tested_on": "Staphylococcus aureus", "assay": "Reduction of 23S rRNA level in wild type Staphylococcus aureus RN1786 at 10 ng/mL by agilent bioanalyzer analysis", "format": "functional", "set-up": "scale not given: the % may be the effect or the level left"}},
  "note": "Active and inactive are the calls of the source. No cut-off for these calls is given here.",
  "data": [
    {"smiles": "C=C[C@]1(C)C[C@@H](OC(=O)CS[C@@H]2C[C@H]3CC[C@@H](C2)N3C)[C@]2(C)[C@H](C)CC[C@]3(CCC(=O)[C@H]32)[C@@H](C)[C@@H]1O", "note": "[RETAPAMULIN]", "values": [
      {"measurement": "Activity", "setting": "[1]", "value": 70.6, "unit": "%"},
      {"measurement": "Activity", "setting": "[2]", "value": "Active"},
      {"measurement": "IC50", "setting": "[3]", "value": 0.017, "unit": "µg/mL"},
      {"measurement": "Activity", "setting": "[4]", "value": "inactive"},
      {"measurement": "Activity", "setting": "[5]", "value": 12.3, "unit": "%"},
      {"measurement": "Activity", "setting": "[6]", "value": 19.8, "unit": "%"},
      {"measurement": "Activity", "setting": "[7]", "value": 18.8, "unit": "%"},
      {"measurement": "IC50", "setting": "[8]", "value": 0.025, "unit": "µg/mL"},
      {"measurement": "Activity", "setting": "[9]", "value": "Active"},
      {"measurement": "IC50", "setting": "[10]", "value": 0.02, "unit": "µg/mL"},
      {"measurement": "Activity", "setting": "[11]", "value": 16.6, "unit": "%"},
      {"measurement": "IC50", "setting": "[12]", "value": 0.012, "unit": "µg/mL"},
      {"measurement": "Activity", "setting": "[13]", "value": "inactive"},
      {"measurement": "Activity", "setting": "[14]", "value": 18.8, "unit": "%"},
      {"measurement": "Activity", "setting": "[15]", "value": 52.3, "unit": "%"},
      {"measurement": "Activity", "setting": "[16]", "value": 19.7, "unit": "%"},
      {"measurement": "Activity", "setting": "[17]", "value": 68.7, "unit": "%"},
      {"measurement": "Activity", "setting": "[18]", "value": 57.6, "unit": "%"},
      {"measurement": "Activity", "setting": "[19]", "value": "inactive"},
      {"measurement": "MIC", "setting": "[20]", "value": 0.055, "unit": "µg/mL"},
      {"measurement": "IC50", "setting": "[21]", "value": 0.005, "unit": "µg/mL"},
      {"measurement": "Activity", "setting": "[22]", "value": 14.1, "unit": "%"},
      {"measurement": "IC50", "setting": "[23]", "value": 0.027, "unit": "µg/mL"},
      {"measurement": "MIC", "setting": "[24]", "value": 0.035, "unit": "µg/mL"},
      {"measurement": "Activity", "setting": "[25]", "value": 15.3, "unit": "%"}
    ]}
  ]
}
